Read-outs that look alike come from different tables or passages of the source.
Legend:
Format in all cases: biochemical
[1] = target: T1, β-Glucuronidase Bovine liver (Bos taurus, UniProt A3KMY8); experiment: Glycosidase inhibition: β-Glucuronidase Bovine liver; conditions: for % Glucuronidase inhibition at 0.8 mM Bovine Liver: approximately 0.8 mM;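 for all read-outs here: bovine liver β-glucuronidase acting on p-nitrophenyl β-D-glucuronide substrate in citric acid/disodium hydrogen phosphate buffer, pH 5.0, 27 °C, mean of triplicate runs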
T1 construct: The assay involved the use of Bovine liver β-glucuronidase; purchased Sigma; host or cells: bovine liver
T1 sequence (A3KMY8 1-652): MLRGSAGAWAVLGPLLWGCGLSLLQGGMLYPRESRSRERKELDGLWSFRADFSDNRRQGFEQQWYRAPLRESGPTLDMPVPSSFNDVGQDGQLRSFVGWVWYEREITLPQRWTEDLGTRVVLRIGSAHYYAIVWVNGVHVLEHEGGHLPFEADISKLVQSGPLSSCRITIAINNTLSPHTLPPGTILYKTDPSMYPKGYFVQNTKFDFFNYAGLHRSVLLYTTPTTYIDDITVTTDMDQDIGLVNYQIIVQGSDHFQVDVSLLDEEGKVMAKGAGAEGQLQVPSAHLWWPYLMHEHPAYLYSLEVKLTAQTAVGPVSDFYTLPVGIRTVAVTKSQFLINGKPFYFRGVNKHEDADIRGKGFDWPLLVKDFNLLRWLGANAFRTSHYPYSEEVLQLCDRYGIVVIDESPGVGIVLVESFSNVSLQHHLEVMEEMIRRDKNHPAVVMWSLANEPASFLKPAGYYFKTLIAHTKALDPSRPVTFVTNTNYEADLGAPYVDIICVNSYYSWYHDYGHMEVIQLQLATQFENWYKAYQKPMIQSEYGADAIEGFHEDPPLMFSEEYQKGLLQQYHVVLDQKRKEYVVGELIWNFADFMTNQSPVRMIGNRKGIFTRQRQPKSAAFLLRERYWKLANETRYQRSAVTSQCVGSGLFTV

[2] = system: N-acetyl-β-D-glucosaminidase (Bovine kidney); experiment: Glycosidase inhibition: N-acetyl-β-D-glucosaminidase (Bovine kidney); conditions: for % Nacetyl glucosaminidase inhibition at 0.8 mM Bovine kidney: approximately 0.8 mM;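 for all read-outs here: enzyme activity followed by cleavage of the matching p-nitrophenyl glycoside (5 mM) in phosphate buffer set to the enzyme's optimal pH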
[3] = target: α-D-glucosidase (Bacillus) (Geobacillus stearothermophilus, UniProt A0ACH1E9U3); experiment: Glycosidase inhibition: α-D-glucosidase (Bacillus); conditions: compounds tested at 0.8 mM
From the text: (§1) The results tabulated below were obtained using commercially available glycosidases and p-nitrophenyl-substrates using standard methods described for example by Watson et al (1997) Phytochemistry 46 255-259. All enzymes and substrates were bought from Sigma. Enzyme and substrate solutions were made using sodium phosphate buffers at the pH optima values. The enzymes used were α-D-glucosidase Saccharomyces cerevisiae, Bacillus stearothermophilus, Oryzae sativa), β-D-glucosidase (Almond), α-D-mannosidase (Jack bean), α-D-galactosidase (Green coffee beans), β-D-galactosidase (Bovine liver), α-L-fucosidase (Bovine kidney), N-acetyl-β-D-glucosaminidase (Bovine kidney, Jack bean, Aspergillus oryzae), Naringinase (Penicillium decumbens) and amyloglucosidase (Aspergillus niger). All enzymes were used with the appropriate p-nitrophenyl substrates (5 mM). Amyloglucosidase activity was measured using amylopectin (0.1%) (Merck) mixed with sodium phosphate buffer, pH 4.5 in a glass bottle, and healed in a boiling water bath for 20 minutes to dissolve with released glucose measured using ‘Trinder’ glucose detection solution (Sigma).
(§2) All enzymes and para-nitrophenyl substrates were purchased from Sigma, with the exception of beta-mannosidase which came from Megazyme. Enzymes were assayed at 27° C. in 0.1M citric acid/0.2M disodium hydrogen phosphate buffers at the optimum pH for the enzyme. The incubation mixture consisted of 10 μl enzyme solution, 10 μl of 1 mg/ml aqueous solution of extract and 50 μl of the appropriate 5 mM para-nitrophenyl substrate made up in buffer at the optimum pH for the enzyme. The reactions were stopped by addition of 70 μl 0.4M glycine (pH 10.4) during the exponential phase of the reaction, which had been determined at the beginning using uninhibited assays in which water replaced inhibitor. Final absorbances were read at 405 nm using a Versamax microplate reader (Molecular Devices). Assays were carried out in triplicate, and the values given are means of the three replicates per assay. (See Watson, A. A., Nash, R. J., Wormald, M. R., Harvey, D. J., Dealler, S., Lees, E., Asano, N., Kizu, H., Kato, A., Griffiths, R. C., Cairns, A. J. and Fleet, G. W. J. (1997). Glycosidase-inhibiting pyrrolidine alkaloids from Hyacinthoides non-scripta. Phytochemistry 46 (2): 255-259.)

α-D-glucosidase (Yeast) = target: T2, α-D-glucosidase (Yeast) (Saccharomyces cerevisiae, UniProt P53341); experiment: Glycosidase inhibition: α-D-glucosidase (Yeast); conditions: compounds tested at 0.8 mM
T2 construct: purchased Sigma
From the text: as §1, §2

[4] = target: T3, N-acetyl-β-D-glucosaminidase (A. oryzae) (Aspergillus oryzae, UniProt Q8J2T0); experiment: Glycosidase inhibition: N-acetyl-β-D-glucosaminidase (A. oryzae); conditions: compounds tested at 0.8 mM
T3 construct: purchased Sigma
From the text: as §1, §2

[5] = target: T4, α-D-mannosidase Jack bean (Canavalia ensiformis, UniProt C0HJB3); experiment: Glycosidase inhibition: α-D-mannosidase Jack bean; conditions: compounds tested at 0.8 mM
T4 construct: α-D-mannosidase (Jack bean); purchased Sigma
T4 sequence (C0HJB3 1-981): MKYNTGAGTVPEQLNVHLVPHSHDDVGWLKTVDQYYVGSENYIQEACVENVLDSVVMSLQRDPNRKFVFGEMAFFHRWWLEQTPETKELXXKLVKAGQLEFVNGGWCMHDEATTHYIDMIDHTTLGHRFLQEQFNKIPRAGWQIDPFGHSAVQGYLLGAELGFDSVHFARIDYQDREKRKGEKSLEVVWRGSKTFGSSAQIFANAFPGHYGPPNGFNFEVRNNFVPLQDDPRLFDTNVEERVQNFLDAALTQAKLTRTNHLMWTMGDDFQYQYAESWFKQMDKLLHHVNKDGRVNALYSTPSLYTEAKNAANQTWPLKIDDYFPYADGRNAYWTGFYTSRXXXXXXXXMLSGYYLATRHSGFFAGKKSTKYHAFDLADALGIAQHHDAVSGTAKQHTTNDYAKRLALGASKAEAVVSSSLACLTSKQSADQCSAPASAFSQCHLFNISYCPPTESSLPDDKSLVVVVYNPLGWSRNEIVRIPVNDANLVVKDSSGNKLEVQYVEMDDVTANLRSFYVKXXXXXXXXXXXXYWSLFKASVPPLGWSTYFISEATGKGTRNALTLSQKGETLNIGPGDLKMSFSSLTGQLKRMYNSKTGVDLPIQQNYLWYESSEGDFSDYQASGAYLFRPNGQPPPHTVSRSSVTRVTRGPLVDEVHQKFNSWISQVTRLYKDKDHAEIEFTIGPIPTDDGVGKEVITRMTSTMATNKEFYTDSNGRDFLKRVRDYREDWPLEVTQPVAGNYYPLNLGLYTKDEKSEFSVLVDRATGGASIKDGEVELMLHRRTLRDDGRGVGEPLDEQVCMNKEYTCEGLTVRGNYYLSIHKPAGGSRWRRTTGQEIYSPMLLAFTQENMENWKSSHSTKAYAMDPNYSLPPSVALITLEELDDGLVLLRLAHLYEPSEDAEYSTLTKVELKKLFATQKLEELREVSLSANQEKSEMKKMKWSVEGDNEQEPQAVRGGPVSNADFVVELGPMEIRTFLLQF

α-D-glucosidase (Rice) = target: T5, α-D-glucosidase (Rice) (Oryza sativa subsp. japonica, UniProt Q653V7); experiment: Glycosidase inhibition: α-D-glucosidase (Rice)
T5 construct: purchased Sigma

[6] = target: T6, α-D-galactosidase Green coffee bean (Coffea arabica, UniProt Q42656); experiment: Glycosidase inhibition: α-D-galactosidase Green coffee bean; conditions: compounds tested at 0.8 mM
T6 construct: α-D-galactosidase (Green coffee beans); purchased Sigma; host or cells: green coffee beans
From the text: as §1, §2

[7] = target: T7, α-L-fucosidase Bovine kidney (Bos taurus, UniProt Q2KIM0); experiment: Glycosidase inhibition: α-L-fucosidase Bovine kidney; conditions: compounds tested at 0.8 mM
T7 construct: α-L-fucosidase (Bovine kidney); purchased Sigma; host or cells: bovine kidney
T7 sequence (Q2KIM0 23-468): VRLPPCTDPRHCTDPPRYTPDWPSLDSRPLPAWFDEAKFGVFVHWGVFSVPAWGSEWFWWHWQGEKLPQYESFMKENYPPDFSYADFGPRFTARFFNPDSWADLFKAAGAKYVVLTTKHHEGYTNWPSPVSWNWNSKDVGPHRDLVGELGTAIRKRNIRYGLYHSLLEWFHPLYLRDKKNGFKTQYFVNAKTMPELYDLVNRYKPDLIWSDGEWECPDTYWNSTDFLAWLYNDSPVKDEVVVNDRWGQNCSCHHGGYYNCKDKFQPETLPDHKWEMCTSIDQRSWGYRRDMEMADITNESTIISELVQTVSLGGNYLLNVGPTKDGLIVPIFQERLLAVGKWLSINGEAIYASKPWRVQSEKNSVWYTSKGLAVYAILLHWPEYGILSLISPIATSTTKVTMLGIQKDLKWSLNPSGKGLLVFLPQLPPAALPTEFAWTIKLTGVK

[8] = target: T8, Amyloglucosidase Aspergillus niger (Aspergillus niger, UniProt P69328); experiment: Glycosidase inhibition: Amyloglucosidase Aspergillus niger; conditions: compounds tested at 0.8 mM
T8 construct: purchased Sigma
From the text: as §1, §2

[9] = read-out: IC50 Glucuronidase Bovine Liver
[10] = read-out: IC50 Nacetyl glucosaminidase Bovine kidney

T5 sequence (Q653V7 34-885): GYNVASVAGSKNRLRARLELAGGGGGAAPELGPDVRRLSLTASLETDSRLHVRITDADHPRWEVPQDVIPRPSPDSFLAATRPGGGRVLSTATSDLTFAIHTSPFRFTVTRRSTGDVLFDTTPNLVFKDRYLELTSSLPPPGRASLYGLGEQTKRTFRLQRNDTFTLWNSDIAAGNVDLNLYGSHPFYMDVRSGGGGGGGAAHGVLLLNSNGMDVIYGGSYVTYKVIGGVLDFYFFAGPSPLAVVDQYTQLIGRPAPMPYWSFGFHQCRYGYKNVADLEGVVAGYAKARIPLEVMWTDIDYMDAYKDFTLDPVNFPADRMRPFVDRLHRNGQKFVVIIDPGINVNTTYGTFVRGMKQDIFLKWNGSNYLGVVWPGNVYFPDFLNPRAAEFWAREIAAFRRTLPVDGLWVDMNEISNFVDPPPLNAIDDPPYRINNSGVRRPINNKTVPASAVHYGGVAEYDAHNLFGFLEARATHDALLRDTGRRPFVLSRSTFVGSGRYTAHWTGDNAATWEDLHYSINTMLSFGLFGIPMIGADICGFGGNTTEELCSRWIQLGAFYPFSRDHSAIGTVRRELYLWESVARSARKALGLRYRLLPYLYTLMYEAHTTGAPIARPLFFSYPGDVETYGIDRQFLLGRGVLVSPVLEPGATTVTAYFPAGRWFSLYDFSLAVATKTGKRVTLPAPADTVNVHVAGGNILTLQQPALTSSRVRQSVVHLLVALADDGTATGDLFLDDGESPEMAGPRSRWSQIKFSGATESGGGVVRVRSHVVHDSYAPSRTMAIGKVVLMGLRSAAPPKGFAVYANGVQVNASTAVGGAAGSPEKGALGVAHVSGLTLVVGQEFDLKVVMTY
T8 sequence (P69328 25-640): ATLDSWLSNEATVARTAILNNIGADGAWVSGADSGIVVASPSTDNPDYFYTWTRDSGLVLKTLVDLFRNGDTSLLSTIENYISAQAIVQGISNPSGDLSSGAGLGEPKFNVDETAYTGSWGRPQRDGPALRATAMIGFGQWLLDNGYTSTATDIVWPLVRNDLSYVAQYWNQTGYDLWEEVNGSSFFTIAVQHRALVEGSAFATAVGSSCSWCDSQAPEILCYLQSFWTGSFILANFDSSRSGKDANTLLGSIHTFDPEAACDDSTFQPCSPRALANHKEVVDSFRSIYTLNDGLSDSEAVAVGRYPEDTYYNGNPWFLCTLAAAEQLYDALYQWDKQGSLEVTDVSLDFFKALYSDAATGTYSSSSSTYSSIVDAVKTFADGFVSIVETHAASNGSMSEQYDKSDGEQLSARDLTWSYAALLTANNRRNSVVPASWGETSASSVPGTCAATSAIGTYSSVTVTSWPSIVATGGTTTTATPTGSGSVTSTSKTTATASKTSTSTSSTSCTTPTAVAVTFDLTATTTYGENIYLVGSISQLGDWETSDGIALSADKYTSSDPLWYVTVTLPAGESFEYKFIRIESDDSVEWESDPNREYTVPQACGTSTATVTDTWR
Chain of α-D-glucosidase (Bacillus) (A0ACH1E9U3 entry or part of it): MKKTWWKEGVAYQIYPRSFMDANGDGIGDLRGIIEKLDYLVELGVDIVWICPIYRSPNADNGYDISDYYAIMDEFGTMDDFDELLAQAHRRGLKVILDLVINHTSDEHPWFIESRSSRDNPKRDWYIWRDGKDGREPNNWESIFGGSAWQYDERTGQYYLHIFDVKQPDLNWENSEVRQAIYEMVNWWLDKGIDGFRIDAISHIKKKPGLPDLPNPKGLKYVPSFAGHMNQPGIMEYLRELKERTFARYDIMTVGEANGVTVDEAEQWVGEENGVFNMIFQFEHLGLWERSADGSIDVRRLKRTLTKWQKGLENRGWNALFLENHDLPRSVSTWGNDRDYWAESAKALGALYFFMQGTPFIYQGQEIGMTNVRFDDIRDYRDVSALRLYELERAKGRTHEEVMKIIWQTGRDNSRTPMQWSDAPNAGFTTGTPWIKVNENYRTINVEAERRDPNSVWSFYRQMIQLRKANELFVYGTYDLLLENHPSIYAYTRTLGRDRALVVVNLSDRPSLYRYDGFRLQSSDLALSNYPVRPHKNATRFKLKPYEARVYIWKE
T2 sequence (P53341 whole entry): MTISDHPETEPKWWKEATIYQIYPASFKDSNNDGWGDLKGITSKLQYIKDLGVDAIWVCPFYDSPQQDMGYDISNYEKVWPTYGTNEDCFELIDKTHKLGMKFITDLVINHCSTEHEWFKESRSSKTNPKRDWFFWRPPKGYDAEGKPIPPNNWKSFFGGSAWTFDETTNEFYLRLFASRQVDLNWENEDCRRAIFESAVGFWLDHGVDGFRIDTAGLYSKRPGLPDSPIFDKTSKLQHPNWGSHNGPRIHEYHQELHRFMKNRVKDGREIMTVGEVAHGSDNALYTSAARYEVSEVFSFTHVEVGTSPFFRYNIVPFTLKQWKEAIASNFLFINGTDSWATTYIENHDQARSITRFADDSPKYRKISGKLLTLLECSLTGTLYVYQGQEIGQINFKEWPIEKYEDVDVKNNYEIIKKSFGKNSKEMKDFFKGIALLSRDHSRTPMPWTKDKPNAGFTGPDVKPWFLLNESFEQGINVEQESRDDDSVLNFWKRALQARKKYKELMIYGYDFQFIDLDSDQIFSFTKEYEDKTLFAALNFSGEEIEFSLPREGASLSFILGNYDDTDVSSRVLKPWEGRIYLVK
T6 sequence (Q42656 16-378): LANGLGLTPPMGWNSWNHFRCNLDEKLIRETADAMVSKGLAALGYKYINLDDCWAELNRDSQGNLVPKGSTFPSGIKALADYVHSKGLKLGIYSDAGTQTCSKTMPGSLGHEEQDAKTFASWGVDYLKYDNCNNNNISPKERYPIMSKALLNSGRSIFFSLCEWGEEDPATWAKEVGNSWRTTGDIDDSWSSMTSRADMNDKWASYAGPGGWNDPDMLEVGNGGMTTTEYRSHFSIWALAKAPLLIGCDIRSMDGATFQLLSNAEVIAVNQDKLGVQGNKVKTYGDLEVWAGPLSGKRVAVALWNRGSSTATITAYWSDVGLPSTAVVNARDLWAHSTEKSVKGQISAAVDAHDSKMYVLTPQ
T3 sequence (Q8J2T0 97-600): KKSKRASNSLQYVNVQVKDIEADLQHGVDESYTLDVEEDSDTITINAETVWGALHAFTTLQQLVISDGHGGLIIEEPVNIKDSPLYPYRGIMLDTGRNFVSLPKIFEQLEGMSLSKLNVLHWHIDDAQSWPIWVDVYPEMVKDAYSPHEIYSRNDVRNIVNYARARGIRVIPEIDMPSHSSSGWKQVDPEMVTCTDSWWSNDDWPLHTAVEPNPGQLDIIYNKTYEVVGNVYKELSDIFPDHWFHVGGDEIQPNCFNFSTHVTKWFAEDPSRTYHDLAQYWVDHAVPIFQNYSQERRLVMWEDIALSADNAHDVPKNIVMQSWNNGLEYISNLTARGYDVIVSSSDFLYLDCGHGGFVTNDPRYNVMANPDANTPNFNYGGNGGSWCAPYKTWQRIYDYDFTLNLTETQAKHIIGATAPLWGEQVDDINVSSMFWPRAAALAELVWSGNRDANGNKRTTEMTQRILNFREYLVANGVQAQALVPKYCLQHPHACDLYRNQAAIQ

Compound	% Glucuronidase inhibition at 0.8 mM Bovine Liver [1] [%]	% Nacetyl glucosaminidase inhibition at 0.8 mM Bovine kidney [2] [%]	also measured
N[C@]1(C(=O)O)C[C@H](CO)C1	−2.2	7.1	
O=C(O)[C@@H]1[C@@H](O)[C@H](O)[C@H]2[C@@H](O)CCN21	−2.3	5.1	
CCC1CC(CC2CC(CCCC(C)C)[C@@H](CC)C(C)[C@H]2C)C(C)C(C)C1C (stereo partly drawn)	3.9	49.4	
CN1C[C@H](O)C[C@H]1C(=O)O	−3.7	−4.7	
CC(O)(CC(N)C(=O)O)C(=O)O (stereo not drawn)	−3.2	−4.2	
C[N+]1(C)CCC[C@H]1C(=O)[O-]	−1.7	2.3	
CC(CC(N)C(=O)O)C(=O)O (stereo not drawn)	−1.6	0.8	
CC[C@@H]1C(C)[C@H](C)CN1CCCC(C)=O (stereo partly drawn)	−2	17	
O=C(O)CCC1[C@H](CO)C(=O)[C@H](O)[C@H]1CO (stereo partly drawn)	85.3	90.1	IC50 [1, 9]: 81 µM; IC50 [2, 10]: 5.1 µM
CC[C@@H]1C(=O)[C@H](O)CN1CCCCC(=O)O	0.8	8	
O=C(O)[C@H]1N[C@H](CO)C(O)[C@H](O)[C@@H]1O (stereo partly drawn)	3.3	25.8	
Cn1c(=O)c2c(ncn2C)n(C)c1=O [Caffeine, reference compound]			inhibition at 143 µg/mL ([1]; 143 ug/ml): -2.4%; Mean % Inhibition, N-acetyl-β-D-glucosaminidase Bovine kidney ([2]; 143 ug/ml): 1.3%
O=C(O)CN1C[C@H](O)[C@@H](O)[C@H](O)[C@H]1CO [Compound G6, 2-((2R,3R,4R,6S)-3,4,5-Trihydroxy-2-(hydroxymethyl)piperidin-1-yl)acetic acid]			inhibition at 800 µM [3]: < 50%; inhibition at 800 µM (α-D-glucosidase (Yeast)): < 50%; IC50 ([1]; pH 5.0, 27° C., p-nitrophenyl β-D-glucuronide, read-out: IC50, β-Glucuronidase Bovine liver): 80 µM; inhibition at 800 µM [4]: < 50%; inhibition at 800 µM [5]: < 50%; % inhibition, N-acetyl-β-D-glucosaminidase (Bovine kidney) ([2]; compounds tested at 0.8 mM): 83.6%; IC50 ([2]; read-out: IC50, N-acetyl-β-D-glucosaminidase (Bovine kidney)): 10.4 µM; inhibition at 800 µM (α-D-glucosidase (Rice); compounds tested at 0.8 mM): 99.7%; IC50 (α-D-glucosidase (Rice); read-out: IC50, α-D-glucosidase (Rice)): 1 µM; inhibition at 800 µM [6]: < 50%; inhibition at 800 µM [7]: < 50%; inhibition at 800 µM [8]: < 50%
O=C(O)[C@H]1NC[C@H](O)[C@@H](O)[C@@H]1O [drawing 22]	88.9	2.4	IC50 [1, 9]: 107 µM

Continued, in another order:

% Glucuronidase inhibition at 0.8 mM Bovine Liver [1] [%]	% Nacetyl glucosaminidase inhibition at 0.8 mM Bovine kidney [2] [%]	Compound	also measured
−4.4	−0.6	C[N+]1([O-])CC[C@H](O)[C@@H]1C(=O)O (stereo partly drawn)	
3.8	8	C[N+]1(C)C[C@@H](O)[C@H](O)[C@H]1C(=O)[O-]	
58.6	4.8	O=C(O)[C@@]1(O)CNC[C@@H](O)[C@H]1O	IC50 [1, 9]: 531 µM
1.4	2.9	O=C(O)[C@]1(O)NC[C@@H](O)[C@H]1O	
0.6	7.6	C[C@@]1(C(=O)O)NC[C@H](O)[C@H]1O	
13.8	6.6	O=C(O)[C@H]1NCC(O)C1O (stereo partly drawn)	
4	82.3	O=C(O)CN1C[C@@H](O)[C@@H](O)C1[C@@H](O)CO (stereo partly drawn)	IC50 [2, 10]: 137 µM
97.9	57.9	CC(=O)NC1NC[C@H](C(=O)O)[C@H](O)[C@@H]1O (stereo partly drawn)	IC50 [1, 9]: 7.3 µM
99.6	−5.2	O=C(O)[C@H]1NC(=O)[C@H](O)[C@@H](O)[C@@H]1O	IC50 [1, 9]: 0.04 µM
